Measured values from patent publication US5061794A, “Cephalosporin derivatives, and antibacterial agents” (priority 1986, dated 1991).
Like-named read-outs stand apart in the source and are kept apart here.

Experiments:
E. coli CSH(RE45) = test: microbe, parasite or virus in culture; assay type: cell-based; settings: 10^6 CFU/ml; for MIC: Escherichia coli, 16 h, read-out: Minimum Inhibitory Concentration (MIC), *E. coli CSH(RE45), lactamase-producing strain
How it was run: (§1)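 MIC values (μg/ml) come from Mueller Hinton agar dilution plates inoculated with overnight-grown bacteria at 10^6 CFU/ml and kept at 37° C. for 16 hours.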

E. coli CSH2 (RK1) = test: microbe, parasite or virus in culture; assay type: cell-based; settings: 10^6 CFU/ml; for MIC: Escherichia coli, 16 h, read-out: Minimum Inhibitory Concentration (MIC), *E. coli CSH2 (RK1), lactamase-producing strain
How it was run: as §1

E. cloacae 963 = test: in vitro antibacterial activity, agar plate dilution method (MIC); assay type: cell-based; settings: 10^6 CFU/ml
How it was run: as §1

E. cloacae Nek 39 = test: as above; assay type: cell-based; settings: 10^6 CFU/ml; for MIC: Enterobacter cloacae, NEK39, 16 h, read-out: Minimum Inhibitory Concentration (MIC), *E. cloacae Nek 39, lactamase-producing strain
How it was run: as §1

E. coli GN5482 = test: as above; assay type: cell-based; settings: for MIC: Escherichia coli, GN5482, 16 h
How it was run: as §1

E. coli NIHJ JC2 = test: as above; assay type: cell-based; settings: for MIC: Escherichia coli, NIHJJC2, 16 h, read-out: Minimum Inhibitory Concentration (MIC), E. coli NIHJ JC2, 10^6 CFU/ml, 37° C.
How it was run: as §1

K. oxytoca GN10650 = test: as above; assay type: cell-based; settings: 10^6 CFU/ml; for MIC: Klebsiella oxytoca, GN10650, 16 h, read-out: Minimum Inhibitory Concentration (MIC), *K. oxytoca GN10650, lactamase-producing strain
How it was run: as §1

K. pneumoniae No. 42 = test: as above; assay type: cell-based; settings: 10^6 CFU/ml; for MIC: Klebsiella pneumoniae, NO.42, 16 h, read-out: Minimum Inhibitory Concentration (MIC), *K. pneumoniae No. 42, lactamase-producing strain
How it was run: as §1

K. pneumoniae PCI-602 = test: as above; assay type: cell-based; settings: 10^6 CFU/ml; for MIC: Klebsiella pneumoniae, PCI602, 16 h
How it was run: as §1

M. morganii GN5407 = test: as above; assay type: cell-based; settings: 10^6 CFU/ml; for MIC: Morganella morganii, GN5407, 16 h, read-out: Minimum Inhibitory Concentration (MIC), *M. morganii GN5407, lactamase-producing strain
How it was run: as §1

P. vulgaris HX-19 = test: as above; assay type: cell-based; settings: for MIC: Proteus vulgaris, HX19, 16 h, read-out: Minimum Inhibitory Concentration (MIC)
How it was run: as §1

P. vulgaris No. 33 = test: as above; assay type: cell-based; settings: 10^6 CFU/ml; for MIC: Proteus vulgaris, NO.33, 16 h, read-out: Minimum Inhibitory Concentration (MIC), *P. vulgaris No. 33, lactamase-producing strain
How it was run: as §1

S. aureus 209P NIHJ-JC1 = test: as above; assay type: cell-based; settings: Staphylococcus aureus, 16 h
How it was run: as §1

S. marcescens IAM 1184 = test: as above; assay type: cell-based; settings: S. marcescens IAM 1184, 10^6 CFU/ml; for MIC: Serratia marcescens, IAM1184, 16 h, read-out: Minimum Inhibitory Concentration (MIC)
How it was run: as §1

S. marcescens No. 16-2 = test: as above; assay type: cell-based; settings: for MIC: Serratia marcescens, NO.162, 16 h
How it was run: as §1

Ps. aeruginosa AK 109 = test: as above; assay type: cell-based, Pseudomonas aeruginosa; settings: for MIC: Pseudomonas aeruginosa, AK109, 16 h
How it was run: as §1

Ps. aeruginosa AKR17 = test: as above; assay type: cell-based, Pseudomonas aeruginosa; settings: for MIC: Pseudomonas aeruginosa
How it was run: as §1

Ps. aeruginosa IF03445 = test: as above; assay type: cell-based, Pseudomonas aeruginosa; settings: 10^6 CFU/ml; for MIC: Pseudomonas aeruginosa, IF03445, 16 h, read-out: Minimum Inhibitory Concentration (MIC), Ps. aeruginosa IF03445
How it was run: as §1

Ps. cepacia 23 = test: as above; assay type: cell-based, Pseudomonas cepacia; settings: Ps. cepacia 23, 10^6 CFU/ml; for MIC: Burkholderia cepacia, 16 h, read-out: Minimum Inhibitory Concentration (MIC)
How it was run: as §1

A. calcoaceticus No. 4 = test: as above; assay type: cell-based, Acinetobacter calcoaceticus; settings: 10^6 CFU/ml; for MIC: Acinetobacter calcoaceticus, NO.4, 16 h
How it was run: as §1

[1] = Enterobacter cloacae, 16 h, E. cloacae 963, read-out: Minimum Inhibitory Concentration (MIC)
[2] = read-out: Minimum Inhibitory Concentration (MIC)
[3] = read-out: Minimum Inhibitory Concentration (MIC), K. pneumoniae PCI-602
[4] = read-out: Minimum Inhibitory Concentration (MIC), *S. marcescens No. 16-2, lactamase-producing strain, 10^6 CFU/ml
[5] = read-out: Minimum Inhibitory Concentration (MIC), Ps. aeruginosa AK 109, 10^6 CFU/ml
[6] = 16 h, Ps. aeruginosa AKR17, 10^6 CFU/ml, read-out: Minimum Inhibitory Concentration (MIC)
[7] = read-out: Minimum Inhibitory Concentration (MIC), A. calcoaceticus No. 4
[8] = S. aureus 209P NIHJ-JC1, 10^6 CFU/ml, 37° C., 16 hours, read-out: Minimum Inhibitory Concentration (MIC)
[9] = Enterobacter cloacae, 963, 16 h, read-out: Minimum Inhibitory Concentration (MIC), E. cloacae 963
[10] = A. calcoaceticus No. 4, read-out: Minimum Inhibitory Concentration (MIC)

Row | Compound | MIC (E. coli CSH(RE45)) | MIC (E. coli CSH2 (RK1)) | MIC (E. cloacae 963; [1]) | MIC (E. cloacae Nek 39) | MIC (E. coli GN5482; [2]) | MIC (E. coli NIHJ JC2) | MIC (K. oxytoca GN10650) | MIC (K. pneumoniae No. 42) | MIC (K. pneumoniae PCI-602; [3]) | MIC (M. morganii GN5407) | MIC (P. vulgaris No. 33) | MIC (S. aureus 209P NIHJ-JC1; [2]) | MIC (S. marcescens IAM 1184) | MIC (S. marcescens No. 16-2; [4]) | MIC (Ps. aeruginosa AK 109; [5]) | MIC (Ps. aeruginosa AKR17; [6]) | MIC (Ps. aeruginosa IF03445) | MIC (Ps. cepacia 23) | MIC (E. cloacae 963; [9]) | MIC (P. vulgaris HX-19; P. vulgaris HX-19, 10^6 CFU/ml) | other results
1 | CCO/N=C(\C(=O)N[C@@H]1C(=O)N2C(C(=O)O)=C(CSc3ncc(-c4ccc(OC(C)=O)c(OC(C)=O)c4)o3)CS[C@H]12)c1csc(N)n1 [compound 67, disodium 3-[5-(3,4-diacetoxyphenyl)-oxazol-2-yl]thiomethyl-7β-[2-(2-aminothiazol-4)-2-ethoxyiminoacetamido]-3-cephem-4-carboxylate] | 0.1 µg/mL | 0.0125 µg/mL | 0.1 µg/mL | 0.39 µg/mL | 3.12 µg/mL | 0.39 µg/mL | 1.56 µg/mL | 0.1 µg/mL | < 0.006 µg/mL | 0.05 µg/mL | 0.025 µg/mL | 3.12 µg/mL | 0.1 µg/mL | 6.25 µg/mL | 1.56 µg/mL | 50 µg/mL | 1.56 µg/mL | 0.05 µg/mL |  |  | MIC (P. vulgaris HX-19): 0.0125 µg/mL; MIC (A. calcoaceticus No. 4; [7]): 0.39 µg/mL
2 | Nc1nc(/C(=N/OC(C(=O)O)c2ccccc2)C(=O)N[C@@H]2C(=O)N3C(C(=O)O)=C(CSc4nnc(-c5ccc(O)c(O)c5)o4)CS[C@H]23)cs1 (single isomer, unassigned) [Example 24 DB, disodium 78-[2-(2-aminothiazol-4-yl)-2-(α-carboxylatebenzyloxyimino)acetamido]-3-[5-(3,4-dihydroxyphenyl)-1,3,4-oxadiazol-2-yl]-thiomethyl-3-cephem-4-carboxylate] |  |  | 0.1 µg/mL |  |  |  |  |  |  |  |  |  |  |  |  |  |  |  |  |  | Minimum Inhibitory Concentration (MIC) (E. coli CSH(RE45); *E. coli CSH(RE45), lactamase-producing strain): 0.0125 µg/mL; Minimum Inhibitory Concentration (MIC) (E. coli CSH2 (RK1); *E. coli CSH2 (RK1), lactamase-producing strain): 0.0125 µg/mL; Minimum Inhibitory Concentration (MIC) (E. cloacae Nek 39; *E. cloacae Nek 39, lactamase-producing strain): 0.05 µg/mL; Minimum Inhibitory Concentration (MIC) (E. coli GN5482; *E. coli GN5482, lactamase-producing strain, 10^6 CFU/ml): 0.39 µg/mL; Minimum Inhibitory Concentration (MIC) (E. coli NIHJ JC2; E. coli NIHJ JC2, 10^6 CFU/ml, 37° C., 16 hours): 0.39 µg/mL; Minimum Inhibitory Concentration (MIC) (K. oxytoca GN10650; *K. oxytoca GN10650, lactamase-producing strain): 0.025 µg/mL; Minimum Inhibitory Concentration (MIC) (K. pneumoniae No. 42; *K. pneumoniae No. 42, lactamase-producing strain): 0.025 µg/mL; Minimum Inhibitory Concentration (MIC) (K. pneumoniae PCI-602; K. pneumoniae PCI-602): < 0.006 µg/mL; Minimum Inhibitory Concentration (MIC) (M. morganii GN5407; *M. morganii GN5407, lactamase-producing strain): 0.2 µg/mL; Minimum Inhibitory Concentration (MIC) (P. vulgaris HX-19; P. vulgaris HX-19, 10^6 CFU/ml): 0.05 µg/mL; Minimum Inhibitory Concentration (MIC) (P. vulgaris No. 33; *P. vulgaris No. 33, lactamase-producing strain): 0.1 µg/mL; MIC (S. aureus 209P NIHJ-JC1; [8]): 25 µg/mL; Minimum Inhibitory Concentration (MIC) (S. marcescens IAM 1184): 0.05 µg/mL; Minimum Inhibitory Concentration (MIC) (S. marcescens No. 16-2; *S. marcescens No. 16-2, lactamase-producing strain, 10^6 CFU/ml): 0.78 µg/mL; Minimum Inhibitory Concentration (MIC) (Ps. aeruginosa AK 109; Ps. aeruginosa AK 109, 10^6 CFU/ml): 0.2 µg/mL; Minimum Inhibitory Concentration (MIC) (Ps. aeruginosa AKR17; Ps. aeruginosa AKR17, 10^6 CFU/ml): 0.78 µg/mL; Minimum Inhibitory Concentration (MIC) (Ps. aeruginosa IF03445; Ps. aeruginosa IF03445): 1.56 µg/mL; Minimum Inhibitory Concentration (MIC) (Ps. cepacia 23): < 0.006 µg/mL; Minimum Inhibitory Concentration (MIC) (A. calcoaceticus No. 4; A. calcoaceticus No. 4): 0.05 µg/mL
3 | Nc1nc(C(=NOC2(C(=O)O)CC2)C(=O)NC2C(=O)N3C(C(=O)O)=C(CSc4nc(-c5ccc(O)c(O)c5)c(CC(=O)O)s4)CSC23)cs1 (stereo not drawn) [Example 60 (I), trisodium 7β-[2-(2-aminothiazol-4-yl)-2-(1-carboxylate-1-cyclopropoxyimino)acetamido]-3-[4-(3,4-dihydroxyphenyl)-5-carboxylatemethylthiazol-2-yl]thiomethyl-3-cephem-4-carboxylate] | 3.12 µg/mL | 0.05 µg/mL |  | 0.39 µg/mL | 3.12 µg/mL | 1.56 µg/mL | 0.39 µg/mL | 0.39 µg/mL |  | 0.39 µg/mL | 0.1 µg/mL |  | 0.2 µg/mL |  | 1.56 µg/mL |  | 1.56 µg/mL | 0.0125 µg/mL | 0.78 µg/mL | 0.025 µg/mL | MIC (K. pneumoniae PCI-602; K. pneumoniae PCI-602, read-out: Minimum Inhibitory Concentration (MIC)): 0.025 µg/mL; MIC (S. aureus 209P NIHJ-JC1; [8]): 50 µg/mL; MIC (S. marcescens No. 16-2; [2]): 3.12 µg/mL; MIC (Ps. aeruginosa AKR17; AKR17, 16 h, read-out: Minimum Inhibitory Concentration (MIC)): 3.12 µg/mL; MIC (A. calcoaceticus No. 4; [7]): 0.78 µg/mL
4 | CON=C(C(=O)NC1C(=O)N2C(C(=O)O)=C(CSc3ncc(-c4ccc(O)c(O)c4)o3)CSC12)c1csc(N)n1 (stereo not shown) [Ex. 62, sodium 75-[2-(2-aminothiazol-4-yl)-2-methoxyiminoacetamido]-3-[5-(3,4-dihydroxyphenyl)-oxazol-2-yl]thiomethyl-3-cephem-4-carboxylate] | 0.05 µg/mL | 0.025 µg/mL |  | 0.78 µg/mL |  | 0.2 µg/mL | 3.12 µg/mL | 0.025 µg/mL | < 0.006 µg/mL | 0.1 µg/mL | 0.025 µg/mL |  | 0.025 µg/mL | 6.25 µg/mL |  | > 100 µg/mL | 1.56 µg/mL | < 0.006 µg/mL | 0.05 µg/mL | < 0.006 µg/mL | MIC (E. coli GN5482; read-out: Minimum Inhibitory Concentration (MIC), *E. coli GN5482, lactamase-producing strain, 10^6 CFU/ml): 1.56 µg/mL; MIC (S. aureus 209P NIHJ-JC1; read-out: Minimum Inhibitory Concentration (MIC), S. aureus 209P NIHJ-JC1, 10^6 CFU/ml, 37° C., 16 hours): 1.56 µg/mL; MIC (Ps. aeruginosa AK 109; [2]): 3.12 µg/mL; MIC (A. calcoaceticus No. 4; [10]): 0.2 µg/mL
5 | Nc1nc(/C(=N/OC2(C(=O)O)CC2)C(=O)N[C@@H]2C(=O)N3C(C(=O)O)=C(CSc4nnc(-c5ccc(O)c(O)c5)s4)CS[C@H]23)cs1 [Ex. 35, disodium 7β-[2-(2-aminothiazol-4-yl)-2-(1-carboxylate-1-cyclooropoxyimino)acetamido]-3-[5-(3,4-dihydroxyphenyl)-1,3,4-thiadiazol-2-yl]thiomethyl-3-cephem-4-carboxylate] | < 0.006 µg/mL | < 0.006 µg/mL |  | 0.05 µg/mL | 0.39 µg/mL | 0.2 µg/mL | 0.025 µg/mL | 0.0125 µg/mL | < 0.006 µg/mL | 0.05 µg/mL | 0.0125 µg/mL | 12.5 µg/mL | 0.025 µg/mL |  |  |  | 0.39 µg/mL | < 0.006 µg/mL | 0.05 µg/mL | < 0.006 µg/mL | MIC (S. marcescens No. 16-2; [2]): 0.39 µg/mL; MIC (Ps. aeruginosa AK 109; Ps. aeruginosa AK 109, 10^6 CFU/ml, read-out: Minimum Inhibitory Concentration (MIC)): 0.2 µg/mL; MIC (Ps. aeruginosa AKR17; AKR17, 16 h, read-out: Minimum Inhibitory Concentration (MIC), Ps. aeruginosa AKR17, 10^6 CFU/ml): 1.56 µg/mL; MIC (A. calcoaceticus No. 4; [10]): 0.05 µg/mL
